d = 2'-deoxy (DNA); r = 2'-OH (RNA)
Assays:
LAT1 = LAT1 activity: [^14C]-L-leucine uptake in SK-HEP-1 cells after LAT1 gene silencing; format: cell-based, human; details: for inhibiting sodium-independent [^14C]-L-leucine transport: LAT1 siRNA, general statement, conditions not given; for [^14C]-L-leucine (0.25 μM) uptake at initial rate of uptake (1 min): liver carcinoma SK-HEP-1 cells, 10 nM siRNA, treatment 6 h, at 24 h and 48 h, 0.4% Lipofectamine 2000, FIGS. 5A and 5C
Description: Cells were plated in 24-well plates (Sarstedt, Germany) and grown until confluence was reached. On the day of the experiment, cell culture medium was aspirated and cells were preincubated for 15 min in Hanks' medium (NaCl 140 mM, KCl 5 mM, MgSO4.7H2O 0.8 mM, K2HPO4 0.33 mM, KH2PO4 0.44 mM, MgCl2.6H2O 1 mM, CaCl2) 0.025 mM, Tris-HCl 9.75 mM, pH 7.4). Uptake was initiated by addition of Hanks' medium with 0.25 μM [^14C]-L-leucine in the absence and in the presence of 3 mM unlabeled L-leucine. During preincubation and incubation cells were continuously shaken and maintained at 37° C. Uptake was terminated after 1 min by rapid removal of uptake solution by means of a vacuum pump connected to a Pasteur pipette, followed by a rapid wash with Hanks' medium. Subsequently, cells were solubilized in 0.1% vol/vol Triton X-100 (dissolved in 5 mM Tris-HCl, pH 7.4), and radioactivity was measured by liquid scintillation counting.
(§1) Cells were plated in 24-well (Sarstedt, Germany) or 6-well plates (Sarstedt, Germany) or 96-well plates with black walls clear bottom (BD Biosciences, USA) and incubated 24 h under normal growth conditions. siRNAs against LAT1 and transfection agent were diluted at desired concentrations and mixed according to transfection agent manufacturer's instructions. The mixture was incubated 20 min at RT for siRNA-complex formation, after which it was added to the cells and incubated at 37° C., 5% CO2. After the incubation period, serum and antibiotic was restored and cells were further incubated at normal conditions for the desired time points until evaluation of LAT1 activity or LAT1 expression (immunoblotting and RT-qPCR).

LAT1 mRNA [1] = assay: LAT1 gene expression (RT-qPCR, relative to GAPDH) after LAT1 gene silencing in SK-HEP-1 cells; format: cell-based, human; details: at 24 h; for LAT1 mRNA relative abundance: liver carcinoma SK-HEP-1 cells, 10 nM siRNA, treatment 6 h, Lipofectamine 2000, FIG. 4A
Description: (§2) SK-HEP-1, T24, HT-1080 and HCT-116 cell lines were maintained in a humidified atmosphere of 5% CO2 at 37° C. SK-HEP-1 cells were grown in RPMI-1640 (Sigma, St. Louis, Mo.) supplemented with 20% fetal bovine serum (FBS) (Gibco, UK), 100 U/mL penicillin G, 0.25 μg/mL amphotericin B, 100 μg/mL streptomycin (Gibco, UK), 25 mM sodium bicarbonate (Merck, Germany) and 25 mM N-2-hydroxyethylpiperazine-N′-2-ethanosulfonic acid (HEPES) (Sigma, St. Louis, Mo.). T24 and HT-1080 cells were grown, respectively, in Dulbecco's Modified Eagle's Medium (DMEM)—high glucose (Sigma, St. Louis, Mo.) and DMEM—low glucose (Sigma, St. Louis, Mo.), supplemented with 10% FBS (Gibco, UK), 100 U/mL penicillin G, 0.25 μg/mL amphotericin B, 100 μg/mL streptomycin (Gibco, UK), 25 mM sodium bicarbonate (Merck, Germany) and 25 mM HEPES (Sigma, St. Louis, Mo.). HCT-116 cells were grown in McCoy's 5A (Sigma, St. Louis, Mo.) supplemented with 10% FBS (Gibco, UK), 100 U/mL penicillin G, 0.25 μg/mL amphotericin B, 100 μg/mL streptomycin (Gibco, UK), 25 mM sodium bicarbonate (Merck, Germany) and 25 mM HEPES (Sigma, St. Louis, Mo.). For all cell lines the medium was changed every 2 days, and cells reached confluence 3-4 days after initial seeding. For subculturing, cells were dissociated with 0.25% trypsin-ethylenediaminetetraacetic acid (EDTA) (Sigma, St. Louis, Mo.), split 1:15 or 1:20 and subcultured in a 21-cm^2 growth area (Sarstedt, Germany).
(§3) Total RNA was isolated and purified using the SV Total RNA Isolation System (Promega, USA) according to manufacturer's instructions. RNA quality and concentration were verified in the NanoDrop ND1000 Spectrophotometer (Thermo Scientific, USA), and RNA integrity and genomic DNA contamination were evaluated by agarose gel electrophoresis. Total RNA (1 μg) was converted into cDNA using the Maxima Scientific First Strand cDNA Synthesis Kit for RT-qPCR (Thermo Scientific, USA), according to instructions. The following protocol was used: 1st step, 10 min at 25° C.; 2nd step, 15 min at 50° C.; 3rd step, 5 min at 85° C. cDNA was used for qPCR analysis using Maxima SYBR Green qPCR Master Mix (Thermo Scientific, USA) in the StepOnePlus instrument (Applied Biosystems, USA). QuantiTect Primer Assay for LAT1 and ASCT2 and for the endogenous control gene GAPDH (Quiagen, Germany) were used. The qPCR reaction was performed in 96-well PCR plates (Sarstedt, Germany) as follows: one cycle of 10 min at 95° C., followed by 40 PCR cycles at 95° C. 15 s and 60° C. 60 s. […] No template controls were always evaluated for each target gene. Quantification cycle (Cq) values were generated automatically by the StepOnePlus 2.3 Software and the ratio of the target gene was expressed in comparison to the endogenous control gene GAPDH.
as §1

[2] = system: human colon cancer HTC-116 cells; assay: Cell proliferation assay (calcein-AM) in human colon cancer HTC-116 cells; format: cell-based; details: for cell proliferation / proliferation: treatment 6 h; for cell proliferation: 72 h exposure, FIG. 14; for proliferation: at 72 h, 0.17% Lipofectamine 2000 or 0.1% Injectin, FIGS. 19B and 20B
Description: as §2
Cell proliferation was measured using calcein-AM (Thermo Fisher Scientific, USA). The membrane permeant calcein-AM, a nonfluorescent dye, is taken up and converted by intracellular esterases to membrane impermeant calcein, which emits green fluorescence. Cells were plated in 96-well plates with black walls clear bottom (BD Biosciences, USA) and incubated 24 h under normal growth conditions. Cells were incubated with test items at 37° C., 5% C02. After the incubation period, serum and antibiotic was restored and cells were further incubated at normal conditions during 72 h. After treatment with test substances or vehicle, cells were washed twice with Hanks' medium and loaded with 2 μM calcein-AM in Hanks' medium, at 37° C. for 30 min. Fluorescence was measured at 485 nm excitation and 530 nm emission wavelengths in a microplate spectrofluorometer (Gemini EM, Molecular Devices). Nine consecutive fluorescence measurements are performed per well, to allow fluorescence readings in the whole area of the well, which was then considered for the calculation of mean fluorescence per well. To determine minimum staining for calcein (calceinmin), eight wells were treated with ethanol 30 min before calcein-AM addition. The percent cell number is calculated as [(calceinsample)/(calceincontrol)]×100.

LAT1 mRNA [3] = assay: LAT1 gene expression (RT-qPCR) after LAT1 gene silencing in human colon cancer HTC-116 cells; format: cell-based; details: treatment 6 h, 72 h, 0.17% Lipofectamine 2000 or 0.1% Injectin, FIG. 19A
Description: as §2, §3, §1

ASCT2 mRNA = assay: ASCT2 gene expression (RT-qPCR) after ASCT2 gene silencing in human colon cancer HTC-116 cells; format: cell-based; details: treatment 6 h, 72 h, 0.17% Lipofectamine 2000 or 0.1% Injectin, FIG. 20A
Description: as §2, §3
as §1, with “ASCT2” for “LAT1”

Row | Substance | inhibiting sodium-independent [^14C]-L-leucine transport (LAT1) | [^14C]-L-leucine (0.25 μM) uptake at initial rate of uptake (1 min) (LAT1) | LAT1 mRNA relative abundance (LAT1 mRNA [1]) | cell proliferation ([2]; 0.1% Injectin) | proliferation [2] | further results
1 | 6 (AACATCACGCTGCTCAACGGC; chemistry not given here) [compound 6] | particularly effective | decreased | decreased | decreased | – | –
2 | 22 (AACATTGTGCTGGCATTATAC; chemistry not given here) [compound 22] | particularly effective | decreased | decreased | decreased | – | –
3 | 34 (AAGGACATCTTCTCCGTCATC; chemistry not given here) [compound 34] | particularly effective | decreased | decreased | decreased | – | –
4 | 58 (CTTCGCCACCTACCTGCTCAA; chemistry not given here) [compound 58] | particularly effective | decreased | decreased | – | – | Effect on [^14C]-L-leucine uptake compared with SEQ ID NO: 34 (LAT1; SK-HEP-1 cells, 10 nM, p<0.05): significantly greater; Effect on LAT1 mRNA relative abundance compared with SEQ ID NO: 34 (LAT1 mRNA [1]; SK-HEP-1 cells, 10 nM, p<0.05): significantly greater; Effect on cell proliferation compared with SEQ ID NO: 34 ([2]; 72 h, 0.1% Injectin, p<0.05): significantly greater
5 | 58/389/390 (sense UCGCCACCUACCUGCUCAATT; antisense UUGAGCAGGUAGGUGGCGATT; siRNA; sugars by position and backbone not given here; further chemistry not fully specified) | – | – | – | decreased | significantly decreased | LAT1 mRNA relative abundance (LAT1 mRNA [3]): significantly decreased; Effect on cell proliferation compared with SEQ ID NO: 58 ([2]; 72 h, 0.1% Injectin, p<0.05): significantly greater
6 | 58/389/412 (sense UCGCCACCUACCUGCUCAATT; antisense UUGAGCAGGUAGGUGGCGAUG; siRNA; sense: sugars from the 5' end r19 d2, backbone not given here; antisense: RNA, backbone not given here) | – | – | – | decreased | – | Effect on cell proliferation compared with SEQ ID NO: 58 ([2]; 72 h, 0.1% Injectin, p<0.05): significantly greater
7 | 61 (CGTGAACTGCTACAGCGTGAA; chemistry not given here) [compound 61] | particularly effective | decreased | decreased | – | – | –
8 | 61/393/394 (chain 1 UGAACUGCUACAGCGUGAATT; chain 2 UUCACUCUGUAGCAGUUCATT; siRNA; sugars by position and backbone not given here; further chemistry not fully specified) | – | – | – | decreased | significantly decreased | LAT1 mRNA relative abundance (LAT1 mRNA [3]): significantly decreased
9 | 61/395/396 (chain 1 UGAACUGCUACAGCGUGAATT; chain 2 UUCACUCUGUAGCAGUUCACG; siRNA; chain 1: sugars from the 5' end r19 d2, backbone not given here; chain 2: RNA, backbone not given here) | – | – | – | decreased | – | –
10 | 267/399/400 (sense GGUCCUGUACCGUCCUCAATT; antisense UUGAGGACGGUACAGGACCTT; siRNA; sugars by position and backbone not given here; further chemistry not fully specified) | – | – | – | decreased | significantly decreased | ASCT2 mRNA relative abundance (ASCT2 mRNA): significantly decreased
11 | 267/401/402 (sense GGUCCUGUACCGUCCUCAATT; antisense UUGAGGACGGUACAGGACCGG; siRNA; sense: sugars from the 5' end r19 d2, backbone not given here; antisense: RNA, backbone not given here) | – | – | – | decreased | – | Effect on cell proliferation compared with SEQ ID NO: 267/356/402 ([2]; 72 h, 0.1% Injectin, p<0.05): significantly greater
12 | 278/405/406 (sense CCACGGUCGCCUCUGAGAATT; antisense UUCUCAGAGGCGACCGUGGTT; siRNA; sugars by position and backbone not given here; further chemistry not fully specified) | – | – | – | decreased | significantly decreased | ASCT2 mRNA relative abundance (ASCT2 mRNA): significantly decreased; Effect on cell proliferation compared with SEQ ID NO: 278/367/408 ([2]; 72 h, 0.1% Injectin, p<0.05): significantly greater
13 | 278/407/408 (sense CCACGGUCGCCUCUGAGAATT; antisense UUCUCAGAGGCGACCGUGGCA; siRNA; sense: sugars from the 5' end r19 d2, backbone not given here; antisense: RNA, backbone not given here) | – | – | – | decreased | – | Effect on cell proliferation compared with SEQ ID NO: 278/367/408 ([2]; 72 h, 0.1% Injectin, p<0.05): significantly greater

— patent US10590422B2, “Anticancer therapeutic intervention” (PHYZAT BIOPHARMACEUTICALS, LDA., priority 2017, dated 2020)
